Measured values reported in article PMC6327263, “Evaluation of Novel 3-Hydroxyflavone Analogues as HDAC Inhibitors against Colorectal Cancer” (Advances in Pharmacological Sciences, 2018).
Where “and” joins values, the source holds several entries; their conditions need not be identical. Equal values may be shown once. Read-outs that look alike come from different tables or passages of the source. Marks after values point to notes of the source that are not given here.

Assays:
[1] = target: T1, recombinant human HDAC8 enzyme (Homo sapiens, UniProt Q9BY41); experiment: HDAC8 enzyme inhibition assay; assay type: biochemical; conditions: mean ± SEM of three experiments
T1 construct: purchased Enzo Life Science, NY, USA BML-AK518
T1 sequence (Q9BY41 1-377): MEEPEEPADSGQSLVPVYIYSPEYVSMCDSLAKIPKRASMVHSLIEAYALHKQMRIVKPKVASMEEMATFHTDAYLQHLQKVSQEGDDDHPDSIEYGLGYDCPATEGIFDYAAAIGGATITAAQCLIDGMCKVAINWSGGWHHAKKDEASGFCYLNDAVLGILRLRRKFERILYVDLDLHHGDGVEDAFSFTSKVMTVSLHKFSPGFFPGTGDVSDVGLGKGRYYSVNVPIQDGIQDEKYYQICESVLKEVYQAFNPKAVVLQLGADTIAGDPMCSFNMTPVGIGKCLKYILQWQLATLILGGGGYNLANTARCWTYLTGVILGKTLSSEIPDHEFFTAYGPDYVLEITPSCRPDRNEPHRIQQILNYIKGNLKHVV
Procedure: The enzymatic reaction was conducted as per Enzo Life Science, NY, USA (BML-AK518) kit protocol. In brief, 10 µl of different concentration of test compounds were added to a 40 µl reaction mixture containing the HDAC assay buffer, HDAC8 substrate, and recombinant human HDAC8 enzyme. The reactions were incubated for 20 min at 30°C. Then, 50 µl of the HDAC developer was added in each well, and the plate was incubated at room temperature for an additional 45 min. Fluorescence intensity was measured at an excitation of 360 nm and an emission of 460 nm using a fluorescence microplate reader (FLx800, BioTek Instruments Inc., Winooski, VT, USA).

[2] = target: T2, recombinant human HDAC1 enzyme (Homo sapiens, UniProt Q13547); experiment: HDAC1 enzyme inhibition assay; assay type: biochemical
T2 construct: purchased Enzo Life Sciences, Inc. USA
T2 sequence (Q13547 whole entry): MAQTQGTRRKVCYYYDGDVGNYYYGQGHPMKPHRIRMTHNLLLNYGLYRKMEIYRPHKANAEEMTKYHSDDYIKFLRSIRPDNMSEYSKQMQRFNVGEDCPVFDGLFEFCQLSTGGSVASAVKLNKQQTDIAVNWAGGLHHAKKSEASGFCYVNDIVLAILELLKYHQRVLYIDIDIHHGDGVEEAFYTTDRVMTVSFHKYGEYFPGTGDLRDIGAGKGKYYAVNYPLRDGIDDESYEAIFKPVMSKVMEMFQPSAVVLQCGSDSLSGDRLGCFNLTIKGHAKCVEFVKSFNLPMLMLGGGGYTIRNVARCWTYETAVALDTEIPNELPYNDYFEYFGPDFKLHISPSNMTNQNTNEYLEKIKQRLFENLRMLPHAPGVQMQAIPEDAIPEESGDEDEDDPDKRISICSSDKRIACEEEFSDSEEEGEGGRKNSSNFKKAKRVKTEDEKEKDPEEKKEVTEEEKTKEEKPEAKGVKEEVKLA
Procedure: The HDAC1 and 6 assays were carried out with few modifications from the previously described method. In brief, 10 µl of different concentration of test compounds was added to 40 µl of reaction mixture containing HDAC assay buffer, HDAC substrate, and recombinant human HDAC1 and 6 enzymes. The reactions were incubated for 30 min at 37°C. Then, 50 µl of trypsin stop solution was added in each well, and the plate was incubated at room temperature for an additional 20 min. Fluorescence intensity was measured at an excitation of 360 nm and an emission of 460 nm using a fluorescence microplate reader (FLx800, BioTek Instruments Inc. Winooski, VT, USA).

HCT116 cells = experiment: Annexin V staining; assay type: cell-based, human; conditions: SAHA 5 µM, quercetin 100 µM, QMJ-2 100 µM, QMJ-5 50 µM, normal control 21.30%
Procedure: Mechanism of cell death induced by synthesized analogues was determined using annexin V staining. In brief, as per annexin V flow cytometry kit protocol (#MCH100105), 1 × 10^6 cells were seeded in a cell culture dish and after overnight adherence, were incubated with test compounds. Cells were then detached by trypsinization, centrifuged, and washed with PBS. Cell suspension (100 µl) was mixed with Muse annexin V reagent (100 µl) and incubated for 20 min at room temperature. The stained cells were quantitatively analyzed for live, early, and late apoptosis using Muse cell analyzer (#0500-3115 Merck Millipore).

[3] = system: caspase 3/7 in HCT116 cells; experiment: Caspase 3/7 activation assay; assay type: cell-based, human; conditions: SAHA 5 µM, quercetin 100 µM, QMJ-2 100 µM, QMJ-5 50 µM; for percentage of apoptotic cells (Apoptotic/Dead, caspase 3/7): normal control 24.60%; for percentage of live cells (caspase 3/7): normal control 69.40%
Procedure: The downstream signaling pathway of apoptosis was determined using the caspase 3/7 activation assay. In brief, as per the caspase 3/7 activation kit protocol (#MCH100108), 1 × 10^6 cells were seeded in the cell culture dish and after overnight adherence, were incubated with the test compounds. The cells were detached by trypsinization, centrifuged, and washed with PBS. Cell suspension (50 µl) was mixed with the caspase 3/7 antibody reagent (5 µl) and incubated at 37°C temperature for 30 min. 7-AAD (7-amino-actinomycin D) working solution (150 µl) was added, and stained cells were then analyzed in Muse Cell Analyzer (#0500-3115 Merck Millipore).

DMH-induced colon cancer = assay type: in vivo, Wistar rats; conditions: for ACF/5 cm^2 / Adenocarcinoma: 21 days treatment, quercetin, QMJ-2, QMJ-5 100 mg/kg p.o., mean ± SEM of six animals; for ACF/5 cm^2: DMH control 25 ± 2.1; for Adenocarcinoma: count in colon, DMH control 17 ± 1.7; for kidney index / liver index / spleen index: rat, in vivo, po, 100 mg/kg
Procedure: The two test compounds (QMJ-2 and QMJ-5) and quercetin were suspended in 0.25% w/v sodium carboxymethyl cellulose (CMC) and were administered orally (p.o.). 5-Fluorouracil (5-FU) which was used as a standard was procured in the form of injection and was administered intraperitonially (i.p.).
Colon cancer in experimental animals was induced using the highly specific carcinogen DMH, with few modifications from the previously described procedure. DMH was administered at a dose of 30 mg/kg i.p. once a week for 20 weeks. The incidence of aberrant crypt foci (ACF) and adenocarcinoma were confirmed by sacrificing few animals after 20 weeks of induction with DMH. Furthermore, the animals were randomized into five experimental groups, and various treatments were administered for a period of 21 days followed by the assessment of different parameters in the experimental animals.
(1) Experimental Groups • Group 1: animals received 0.25% CMC in water p.o. • Group 2: animals received 0.25% CMC in water p.o. (DMH control) • Group 3: animals received 5-FU at 10 mg/kg i.p. • Group 4: animals received quercetin at 100 mg/kg p.o. • Group 5: animals received QMJ-2 at 100 mg/kg p.o. • Group 6: animals received QMJ-5 at 100 mg/kg p.o.
(2) ACF Formation and Adenocarcinoma Incidence. The entire colon was excised from the experimental animals and was used to study the incidence of adenocarcinoma. The count and size were noted from each animal. For ACF formation, the distal part of the colon was excised, and the tissue was then cut open and fixed with 10% buffered formalin for 12 h. Following this, the tissue was stained with 0.1% methylene blue in PBS for 5 min. The tissues were then observed under microscope for ACF formation and were calculated as the number of counts/5 cm^2 in colon tissue.
(3) Colon Weight/Length Ratio and Organ Index. Length of the excised colon was measured in centimeters, and weight was measured in g. Colon weight/length ratio was then calculated. For the determination of organ index, major organs including spleen, liver, and kidney of the experimental animals were weighed in g and the respective index was calculated. […]

[4] = mean ± SEM of three experiments, read-out: HDAC1 IC50

IC50 [1] | IC50 [2, 4] | kidney index (DMH-induced colon cancer) | liver index (DMH-induced colon cancer) | Compound | percentage of cells undergoing late apoptosis (Late Apop./Dead, annexin V) (HCT116 cells) | percentage of apoptotic cells (Apoptotic/Dead, caspase 3/7) [3] | percentage of live cells (caspase 3/7) [3] | ACF/5 cm^2 (DMH-induced colon cancer; 5-FU 10 mg/kg i.p.) | colon weight/length ratio (DMH-induced colon cancer; compared with DMH control, 5-FU 10 mg/kg i.p., others 100 mg/kg p.o., 21 days) | Adenocarcinoma (DMH-induced colon cancer; 5-FU 10 mg/kg i.p.) | spleen index (DMH-induced colon cancer) | IC50 ([2]; HDAC1 IC50, mean ± SEM of three experiments)
36 ± 4.17 µM | 34.1 ± 3.83 µM | no significant change | Significant reduction | Cc1ccc(-c2oc3ccccc3c(=O)c2O)cc1 [QMJ-2, 3-Hydroxy-2-(4-methylphenyl)-4H-1-benzopyran-4-one] | 35.20% | 55.70% | 37.40% | 16 ± 2.1 /5 cm^2 and 16 ± 2.1^a /5 cm^2 | significant decrease | 14 ± 1.3 | significant decrease | 
24 ± 2.8 µM | 47.7 ± 6.3 µM | no significant change | Significant reduction | Cc1ccc(-c2oc3cc(C)ccc3c(=O)c2O)cc1 [QMJ-5, 3-Hydroxy-7-methyl-2-(4-methylphenyl)-4H-1-benzopyran-4-one] | 38.65% | 83.55% | 8.05% | 15 ± 2.6 /5 cm^2 and 15 ± 2.6^a /5 cm^2 |  | 11 ± 0.8^a |  | 

Compound | IC50 [1] | IC50 [2, 4] | kidney index (DMH-induced colon cancer) | liver index (DMH-induced colon cancer) | percentage of cells undergoing late apoptosis (Late Apop./Dead, annexin V) (HCT116 cells) | percentage of apoptotic cells (Apoptotic/Dead, caspase 3/7) [3] | percentage of live cells (caspase 3/7) [3] | ACF/5 cm^2 (DMH-induced colon cancer; 5-FU 10 mg/kg i.p.) | colon weight/length ratio (DMH-induced colon cancer; compared with DMH control, 5-FU 10 mg/kg i.p., others 100 mg/kg p.o., 21 days) | Adenocarcinoma (DMH-induced colon cancer; 5-FU 10 mg/kg i.p.) | spleen index (DMH-induced colon cancer) | IC50 ([2]; HDAC1 IC50, mean ± SEM of three experiments)
O=c1c(O)c(-c2ccc(O)c(O)c2)oc2cc(O)cc(O)c12 [Quercetin, quercetin, reference compound] | 15.4 ± 1.53 µM |  |  |  | 35.80% | 59.65% |  | 19 ± 2.6 /5 cm^2 |  | 15 ± 1.1 | significant decrease | 26.7 ± 3.77 µM
